# Experiment: gradient 5% acetonitrile 3 min, to 50% in 2 min, to 85% in 15 min, held 3 min, 100 µL/min
# Details: column: Zorbax Extend-C18 2.1 x 50 mm; eluents: water / acetonitrile, 0.1% formic acid
# Summary of the method: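 Each retention time is based on an adduct peak selected computationally and verified by manual inspection. Measurements used HPLC–quadrupole time-of-flight mass spectrometry in positive and negative ionization mode on mixtures of ~100 pure standards. Chromatography ran on a Zorbax Extend-C18 column (2.1 × 50 mm, 1.8 μm) at 100 μL/min with water and acetonitrile, each containing 0.1% formic acid, and dead and dwell volumes of 40 μL and 900 μL.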
row,SMILES,RP-LC retention time [s]
1,COC(=O)c1cccc(Nc2c(-c3ccc(N4CCOCC4)cc3)nc3cnccn23)c1,754
2,CN(C)c1cc(-n2cnc(C(=O)NCc3cccc(Cl)c3)c2)ncn1,793
3,Cc1ccc(NC(=O)C2CCN(S(=O)(=O)c3ccc4c(c3)NC(=O)C(C)O4)CC2)c(Cl)c1 (configuration not stated),812
4,C=CCn1c(=O)c2ccccc2n(Cc2nc(-c3cccc(OC)c3)no2)c1=O,1010
5,O=C(CN1CCCc2nc(C3CC3)ncc2C1=O)NC1CC1,604
6,Cc1ccc(NS(=O)(=O)c2cc(-c3[nH]ncc3C(=O)N3CCCC3)oc2C)c(F)c1,738
7,CC1(C)CC(=O)c2cn(-c3ccc(Cl)cc3)c(=O)c(C(=O)N3CCOCC3)c2C1,757
8,Cc1cc(=O)n(CC(=O)NCc2ccc3c(c2)OCO3)c(-c2ccc(F)cc2)n1,940
9,CC(C)c1ccc2c(c1)-c1ccccc1S(=O)(=O)N2CC(=O)NCc1ccccn1,757
10,CCOc1ccc(NS(=O)(=O)c2ccc(-c3c(C)noc3C)cc2)cc1,934
11,O=C(NC1CCCCC1)C1CCN(c2cncnc2N2CCCC2)CC1,637
12,O=C(CNC(=O)Cc1ccc(Cl)cc1)NCc1[nH]nc2ccccc12,703
13,Cc1cc(NC(=O)Cn2nc(N3CCCC3)c3ccccc3c2=O)ccc1Br,1060
14,Cc1cccc(N2CCN([C@H]3CS(=O)(=O)C[C@@H]3S(=O)(=O)c3ccccc3)CC2)c1C,1060
15,COc1cccc2c1OC1(C)CC2C(S(=O)(=O)c2ccc(C)c(C)c2)C(=O)N1C (configuration not stated),931
16,CCn1ncc(Cl)c1C(=O)N1CCCC1c1c(C)noc1C (configuration not stated),734
17,COc1ccc(CN2C(=O)COC[C@H]2C(=O)NCc2ccco2)c(OC)c1,704
18,CCn1ccc2sc(C)c(C(=O)NCc3ccc(OC)cc3OC)c2c1=O,814
19,Cc1cc([N+](=O)[O-])ccc1NC(=O)C(=O)NCc1cccs1,864
20,Cc1ccc(CN2CCCN(CC(=O)NC(C)CCc3ccccc3)S2(=O)=O)cc1 (configuration not stated),1050
21,Cc1ccc(S(=O)(=O)NC(c2nc(-c3ccc(-c4csc(C)n4)cc3)no2)C(C)C)cc1 (configuration not stated),1160
22,O=C(NCCc1csc(-c2cccs2)n1)C1CCN(C(=O)c2cccc(Cl)c2)CC1,839

row,SMILES,RP-LC retention time [s]
1,COc1ccc(S(=O)(=O)N2CC(F)(F)C[C@H]2c2nnc(C)o2)cc1,788
2,CS(=O)(=O)Nc1ccc(-c2noc(-c3ccc4c(c3)OCO4)n2)cc1,897
3,Cc1ccccc1N1CCN(S(=O)(=O)c2ccc(-c3nnc(C4CC4)o3)o2)CC1,1090
4,CC(C)CCNc1ccc(-c2nc(-c3ccc(F)cc3)no2)cn1,1230
5,Cn1nc(-c2ccccc2)nc1C1CN(C(=O)Nc2ccccc2C(F)(F)F)C1,807
6,CCCNC(=O)C1CCCN(c2ccc(SCC(=O)NCc3ccccc3)nn2)C1 (configuration not stated),648
7,Cc1cc(C)cc(N2CCC(NC(=O)Cc3cccs3)C2=O)c1 (configuration not stated),862
8,CCC(CO)NCC(O)COCc1ccc(Cl)cc1 (configuration not stated),552
9,Cc1ccc(NC(=O)C2CCN(S(=O)(=O)c3ccc4[nH]c5c(c4c3)CCCCC5)CC2)nc1,897
10,COc1ccc(C(=O)Nc2nc(-c3ccc4c(c3)N(C)C(=O)CO4)cs2)cc1OC,785
11,CSc1ccc(-c2nc3nc(C)cc(C)n3c2Nc2ccccc2C)cc1,785
12,COc1ccc(-c2nc(-c3nnn(-c4ccccc4)c3C)no2)cc1OC,892
13,CCCCOc1ccc(C(=O)NC2(c3nc(-c4cccnc4)no3)CCCCC2)cc1,1170
14,COc1cc(NC(=O)N2CCN(c3cc(C)nc(N4CCOCC4)n3)CC2)cc(OC)c1,627
15,COc1ccc(CN(C)Cc2cc(=O)n3cc(C)ccc3n2)cc1,598
16,O=C(Nc1cccc(Cl)c1)C1CCN(S(=O)(=O)c2ccc3[nH]c(=O)ccc3c2)CC1,808
17,O=C(C1CCCN(c2cnc3nccnc3c2)C1)N1CCN(c2ccccn2)CC1 (configuration not stated),568
18,COCCN(C)C(=O)c1cn(C2CN(S(=O)(=O)c3cn(C)cn3)C2)nn1,585
19,Cc1ccc(S(=O)(=O)NC(C)c2nc(-c3ccc(NS(C)(=O)=O)cc3)no2)cc1 (configuration not stated),817
20,CC1(C(=O)NCc2ccc(F)cc2)CCCN(C(=O)NC2CCCCC2)C1 (configuration not stated),895
21,O=C(Cc1cccs1)NCc1nnnn1-c1ccc(Cl)cc1,747
22,CCOC(=O)c1nc(NCc2ccccc2OCC)c2c(C)noc2n1,988

row,SMILES,RP-LC retention time [s]
1,COc1ccc(C(C)NC(=O)C2CCCN(c3cnc4nccnc4c3)C2)cc1OC (configuration not stated),663
2,CCN1CCN(CCNC(=O)c2ccc3c(c2)N(C)C(=O)C2CCCCN32)CC1 (configuration not stated),579
3,COC(=O)c1ccc(NC(=O)C(=O)NCC(O)c2sccc2C)cc1 (configuration not stated),707
4,O=C(Nc1cccc2c(=O)cc(-c3nn[nH]n3)oc12)c1ccc(OCCCCc2ccccc2)cc1,1180
5,COc1ccc(CN2C=C(C(=O)OCc3c(C)noc3C)C(C)=NS2(=O)=O)cc1,934
6,COCC(=O)N(C)CCc1noc(-c2ccc(C(=O)N3CCCC3)cc2)n1,626
7,O=C(c1ccc(-c2ccc3c(c2)CCN3S(=O)(=O)c2ccccc2F)cc1)N1CCOCC1,899
8,C[C@H]1CN(S(=O)(=O)c2ccc(F)cc2)C[C@@H]1c1nc(-c2ccccc2)no1,1120
9,CON(C)C(=O)C1CN(C(=O)COc2ccccc2F)C1,629
10,CCCCn1nnc(NCc2ccc(-c3cccc(Cl)c3)o2)n1,1150
11,CC(Cc1ccco1)NC(=O)c1cc(S(=O)(=O)N2CCCCCC2)ccc1Cl (configuration not stated),1010
12,O=C(O)c1cc2nc(-c3ccc(Cl)cc3)cc(C(F)(F)F)n2n1,927
13,Cc1ccc(C)c(S(=O)(=O)N2CCC(n3cnnc3C(C)C)CC2)c1,768
14,O=C(Nc1nnc(SCc2ccccn2)s1)C1CC(=O)N(c2ccc(F)cc2)C1 (configuration not stated),617
15,CC(C)CC(=O)Nc1ccc2nc(N3CCN(c4ccc(Cl)cc4)CC3)cc(C(=O)O)c2c1,746
16,CCCSCCCNC(=O)C1CCCN(c2nc3ccccc3n(Cc3ccccc3)c2=O)C1 (configuration not stated),1200
17,COc1ccc(C(=O)N2CCCN(c3nnc4ccc(Cl)cn34)CC2)cn1,579
18,Cc1cccc(CNC(=O)C2CCN(c3nnc4c(Cl)cccn34)CC2)c1C,757
19,Cc1cc(OCC(O)Cn2c(C3CC3)nc3ccccc32)cc(C)c1Cl (configuration not stated),795
20,CN(CCc1noc(-c2ccccc2)n1)C(=O)CSc1ccccc1,959
21,OC(COc1cccc2ccccc12)CN1CCN(c2ccc(Cl)cc2)CC1 (configuration not stated),856
22,Brc1ccc(-c2ccc(CNc3ncn[nH]3)o2)cc1,708

row,SMILES,RP-LC retention time [s]
1,Cn1c(=O)c2cc(C(=O)Nc3ccccc3C(N)=O)cnc2n(-c2ccccc2)c1=O,788
2,O=C(CSC1CCc2ccccc2NC1=O)Nc1ccc(F)c(Cl)c1 (configuration not stated),873
3,Cc1nnc2c(S(=O)(=O)N(Cc3ccccc3)c3cc(F)cc(F)c3)cccn12,865
4,Cc1ccc(C(=O)N2CCCC2COc2ccc(C(=O)NC(C)C)cc2)cc1F (configuration not stated),889
5,COc1ccc(C(=O)N2CC(N3CC(C(=O)N4CCCC4)CC3=O)C2)cc1F (configuration not stated),639
6,O=C(Nc1ccc(Cl)cc1)C1CCCN(c2nc3ccsc3c(=O)n2Cc2ccc(F)cc2)C1 (configuration not stated),1110
7,CC(C)(C)c1ccc(-c2noc(Cn3c(=O)n(-c4cccc(F)c4)c(=O)c4sccc43)n2)cc1,1220
8,COc1ccc2nc(NC(=O)C3CCN(c4nc(-c5ccc(OC)c(OC)c5)no4)CC3)sc2c1,933
9,COc1cc([C@H]2c3cc4c(cc3[C@@H](O)[C@H](CO)[C@H]2C(=O)Nc2cnccn2)OCO4)cc(OC)c1OC,626
10,CCC(=O)N1CC(n2cc(C(=O)NCC3CC3)nn2)C1,617
11,CCOC(=O)c1[nH]c(C)c(CCC(=O)N2CCC(C(=O)NC3CC3)CC2)c1C,650
12,O=C(Cc1ccc(F)cc1)Nc1ccc2cn[nH]c2c1,688
13,CN(C)C(=O)c1ccc2c(c1)N(CC(=O)N1CCN(c3ccccc3)CC1)C(=O)C1CCCCN21 (configuration not stated),778
14,Cc1cccc(CNC(=O)C2CCCN(c3cc(=O)n(C)c(=O)n3C)C2)c1 (configuration not stated),701
15,COc1ccc(-c2nnc(-c3ccc(C)c(S(=O)(=O)NCc4cccs4)c3)o2)cc1OC,917
16,CCCN1C(=O)c2c(C(=O)NCCc3ccccc3C)ncn2CC1(C)C(=O)NCCC(C)C (configuration not stated),900
17,Cc1ccc2[nH]cc(CCN3CC(C(=O)Nc4ccc(F)c(Cl)c4)CC3=O)c2c1 (configuration not stated),899
18,CCOC(=O)c1c(C)[nH]c(C(=O)N2CCCC(C(=O)NC3CCCCC3)C2)c1C (configuration not stated),838
19,COc1cccc(NC(=O)[C@H]2[C@@H](c3cc(OC)c(OC)c(OC)c3)c3cc4c(cc3[C@@H](O)[C@@H]2CO)OCO4)c1,704
20,CCc1ccccc1NC(=O)N1CCCC(C)(C(=O)NCc2ccccc2C)C1 (configuration not stated),1020
21,Cc1nnc2c(NC(=O)C3CCCC3)cccn12,644
